Laboratory results reported in patent US20210317111A1, “NOVEL MEDICAMENT FOR TREATING INFLAMMATORY BOWEL DISEASE” (OTSUKA PHARMACEUTICAL CO., LTD., priority 2018, published 2021).
Converted amounts (≈) assume the structure as drawn.

Experiments:
[1] = system: naive T cell transfer model of colitis; experiment: naive T cell transfer model of colitis (Crohn's disease mouse model), histological scoring of large intestine; format: in vivo
Source text: From spleen of Balb/c mouse, naive T cell (CD4+CD62L+CD44−) was isolated with antibody-coated magnetic beads. The isolated naive T cell (5×10^5 cells/mouse) was transplanted in abdominal cavity of SCID mouse which is a severe combined immunodeficiency animal. The present compound was orally administered to the mouse once a day at each dose defined in Table 1 below, from the first day of the transplantation for Test 1, or from the 2nd week after the transplantation for Test 2, until 5 weeks after the transplantation. [table] […] The anti-TNF-α antibody was intraperitoneally administered to the mouse twice a week at each dose defined in Table 2 below, from the 2nd week after the transplantation, for 2 weeks. [table] At 5th week for Tests 1 and 2, and at 4th week for Test 3, the large intestine was removed, and the length and weight of the large intestine were measured. In addition, the large intestine was fixed with formalin to carry out pathological analysis. From the removed large intestine, the anus part, the center part, and the cecal part were cut out each in about 0.5 cm, and each part was fixed with formalin. The paraffin block thereof was prepared, sliced, and subjected to H&E staining. The H&E stained slice was examined with a microscope to score it histologically. The histological scoring was carried out by scoring the inflammatory cell infiltrate, the Goblet cell loss, and the hyperplasia of mucosal epithelium, based on the standard (0-4) defined in Table 3 below. [table]

IFN-γ = IFN-γ production by stimulated PBMC (ELISA); format: cell-based; details: stimulated human PBMC, 3 days, culture supernatant
Procedure: (§1) Peripheral blood (30 mL) derived from a healthy adult was layered on a lymphocyte tube Leucosep™ containing Lymphoprep (15 mL), and the tube was centrifuged at room temperature at 2000 rpm for 20 minutes. After the centrifugation, the upper 5 mL of the plasma was removed from the peripheral blood mononuclear cell (PBMC) layer with an aspirator, and the left solution containing the PBMC layer was collected into a new 50 mL tube. To the collected solution was added an equal amount of Hanks' balanced salt solution (HBSS) to dilute the cell suspension. The diluted solution was centrifuged at 4° C. at 1800 rpm for 5 minutes. After the centrifugation, the supernatant was discarded, the rest was suspended in 10 mL of AIM-V. The suspension was centrifuged at 4° C. at 1500 rpm for 5 minutes, and the supernatant was discarded. The same washing process was repeated one more time. After the centrifugation, the supernatant was discarded, and the obtained cell was suspended in 5% FBS-containing AIM-V to be used in the following tests.
(§2) To 96-well round-bottom plate were added 100 μL of medium containing the compound, 100 μL (0.5×10^5 beads) of anti-CD3/CD28/CD2-loaded bead suspension (Miltenyi), and 100 μL (1×10^5 cells) of PBMC suspension. The mixture was incubated at 37° C. in 5% CO2 for 3 days.

TNF-α = TNF-α production by stimulated PBMC (ELISA); format: cell-based; details: stimulated human PBMC, 3 days, culture supernatant
Procedure: as §1, §2

Fusobacterium spp. = experiment: antibacterial activity (MIC), agar plate dilution method; format: cell-based; details: 17 strains of Fusobacterium spp.; anaerobic, 37° C.
Procedure: There are plural reports about the relationship between intestinal bacteria and inflammatory bowel disease, and it is thought that Fusobacterium spp., one of the intestinal bacteria is a pathogenic bacteria causing inflammatory bowel disease. […] The antibacterial activity (minimum inhibitory concentration (MIC)) was assayed by agar plate dilution method which is based on Clinical and laboratory standards institute (CLSI). The medium used herein was Brucella medium with sheep blood. […] The bacterial suspension was inoculated onto Brucella agar with sheep blood which contains the present compound or any one of the comparative drugs, and incubated at 37° C. under an anaerobic condition.

[2] = system: Mycobacterium avium subspecies paratuberculosis (MAP); experiment: antibacterial activity (MIC), broth microdilution method; format: cell-based; details: 336 h
Procedure: The chronic enterocolitis of ruminants which is caused by Mycobacterium avium subspecies paratuberculosis (MAP) is similar to Crohn's disease. […] Thus, the antibacterial activity of the present compound against MAP was evaluated. The used comparative drugs for the present compound were rifaximin (RFX), ciprofloxacin (CPFX), metronidazole (MTZ), clarithromycin (CAM), rifabutin (RBT), and clofazimine (CFZ).
The antibacterial activity (minimum inhibitory concentration (MIC)) was assayed by broth microdilution method which is based on Clinical and laboratory standards institute (CLSI).
The 5 strains of MAP were inoculated onto Middlebrook 7H9 agar containing 10% dubos oleic albumin complex (OADC), Tween 80 (0.5 g/L), mycobactin J (2 mg/L), and 1.5% agar, and pre-cultured at 37° C. under an aerobic condition for 14 days. After the pre-culture, the bacterial cell was scraped out from the agar, and prepared to the turbidity of 0.5 Mcfarland standard using Middlebrook 7H9 broth containing 10% dubos oleic albumin complex (OADC), Tween 80 (0.5 g/L), and mycobactin J (2 mg/L)]. The 10-fold diluted solution of the bacterial suspension was inoculated onto Middlebrook 7H9 broth 96-well plate which contains the present compound or any one of the comparative drugs, and incubated at 37° C. under an aerobic condition for 14 days.
After the incubation, the bacterial growth in each well of the 96-well plate was visually checked. The minimum concentration at which the bacterial growth was not observed, compared with the result of the well containing neither present compound nor comparative drug was determined as MIC of the present compound or each comparative drug against each test bacterium.

DSS-induced colitis = DSS-induced colitis model, stool scores; format: in vivo, rat; details: for deaths: 8 animals per group
Source text: A colitis model induced by dextran sulfate sodium (DSS) is widely used as an experimental ulcerative colitis model having similarities of human ulcerative colitis regarding suppression of weight gain, colitis symptoms such as bloody stools and diarrhea, and injury formation in the large intestine. The effect of the present compound on the ulcerative colitis model was examined, and it was compared with salazosulfapyridine (SASP) clinically used as a therapeutic agent for ulcerative colitis.
Symptoms of colitis were induced by allowing rats to freely drink 3% dextran sulfate sodium (DSS) solution for 10 days. […] For the observation of stool symptoms, the degree of stool condition was scored as the score of stool firmness (Stool Consistency Score: 0, 1, 2, 3) and blood stool (Bloody Stool Score: 0, 1, 2, 3). The total of Stool Consistency Score and Bloody Stool Score was taken as the Total Stool Score. Each group was composed of 8 animals. Salazosulfapyridine (SASP), which is an already-existing drug for treating inflammatory bowel disease, the present compound or the vehicle were administrated for 10 days from the start date of 3% DSS freely drinking.

[3] = 11th day, present compound 1, 3, 10 mg/kg (P<0.01) or SASP 100 mg/kg (P<0.05) orally twice a day, Dunnett's test
[4] = present compound groups, orally twice a day

In the case of `Cc1c(-c2cnc(N)c(C#N)c2)c(F)cc2c(=O)c(C(=O)O)cn(C3CC3)c12` [the present compound, 7-(6-amino-5-cyanopyridin-3-yl)-1-cyclopropyl-6-fluoro-1,4-dihydro-8-methyl-4-oxo-3-quinoline-carboxylic acid], the “histological score (Test 1, preventive effect)” value ([1]; 2.5 mg/kg or more, oral once a day from first day of transplantation until 5 weeks, vs solvent control) was “inhibited the increase of the histological score”, the “histological score (Test 2, therapeutic effect)” value ([1]; 5 mg/kg or more, oral once a day from 2nd week after transplantation until 5 weeks, vs solvent control) was “significantly inhibited the increase of the histological score” and the “histological score (Test 3, comparative study)” value ([1]; from 2nd week after transplantation for 2 weeks, present compound, CPFX, RFX oral once a day 10 mg/kg, antibody 25 mg/kg i.p. twice a week, 4th week) was “potent inhibitory effect at the same level as Normal group”. The “cytokine production (IFN-γ)” value (IFN-γ) was “decreased”, the “cytokine production (TNF-α)” value (TNF-α) was “decreased” and the MIC (Fusobacterium spp.) was 0.25 to 1 µg/mL (≈ 0.661 to 2.64 µM). The MIC [2] was 0.06 to 0.5 µg/mL (≈ 0.159 to 1.32 µM), the deaths (DSS-induced colitis; 1 mg/kg orally twice a day) was “One” and the deaths (DSS-induced colitis; 3 mg/kg orally twice a day) was “no death”. The “effect on blood stool score at 10 mg/kg” value (DSS-induced colitis; 10 mg/kg orally twice a day) was “remarkable deterioration suppression effect”, the deaths (DSS-induced colitis; 10 mg/kg orally twice a day) was “no death” and the “bloody stool score vs vehicle control” value (DSS-induced colitis; 11th day, present compound 1 mg/kg (P<0.05), 3, 10 mg/kg (P<0.01) or SASP 100 mg/kg orally twice a day, Dunnett's test) was “Significant differences”. The “stool firmness (Stool Consistency Score) vs vehicle control” value (DSS-induced colitis; [3]) was “Significant differences”, the “total stool score vs vehicle control” value (DSS-induced colitis; [3]) was “Significant differences” and the “day from which deterioration suppression effect on blood stool score was observed” value (DSS-induced colitis; [4]) was “from the 6th day”. For the same molecule, the “day from which deterioration suppression effect on stool firmness score was observed” value (DSS-induced colitis; [4]) was “from the 9th day”.
